Data set [1] concerns Liver microsome. Briefly: Intrinsic clearance in human liver microsomes at 1 uM by LC-MS/MS analysis in absence of NADPH. It counts as ADME.
Data set [2] relates to Liver microsome. Briefly: Intrinsic clearance in human liver microsomes at 1 uM by LC-MS/MS analysis in presence of NADPH. It counts as ADME. Background: Liver microsomes are a subcellular fraction often used to study metabolism.
The target in data set [3] is Tyrosine-protein kinase BTK (Mus musculus, UniProt P35991). Kind of data set: Inhibition of BTK in Balb/c mouse B cells assessed as inhibition of anti-IgM-stimulated CD86 expression by flow cytometry. It counts as cell-based.
Tyrosine-protein kinase BTK (Mus musculus, UniProt P35991), sequence (P35991 whole entry): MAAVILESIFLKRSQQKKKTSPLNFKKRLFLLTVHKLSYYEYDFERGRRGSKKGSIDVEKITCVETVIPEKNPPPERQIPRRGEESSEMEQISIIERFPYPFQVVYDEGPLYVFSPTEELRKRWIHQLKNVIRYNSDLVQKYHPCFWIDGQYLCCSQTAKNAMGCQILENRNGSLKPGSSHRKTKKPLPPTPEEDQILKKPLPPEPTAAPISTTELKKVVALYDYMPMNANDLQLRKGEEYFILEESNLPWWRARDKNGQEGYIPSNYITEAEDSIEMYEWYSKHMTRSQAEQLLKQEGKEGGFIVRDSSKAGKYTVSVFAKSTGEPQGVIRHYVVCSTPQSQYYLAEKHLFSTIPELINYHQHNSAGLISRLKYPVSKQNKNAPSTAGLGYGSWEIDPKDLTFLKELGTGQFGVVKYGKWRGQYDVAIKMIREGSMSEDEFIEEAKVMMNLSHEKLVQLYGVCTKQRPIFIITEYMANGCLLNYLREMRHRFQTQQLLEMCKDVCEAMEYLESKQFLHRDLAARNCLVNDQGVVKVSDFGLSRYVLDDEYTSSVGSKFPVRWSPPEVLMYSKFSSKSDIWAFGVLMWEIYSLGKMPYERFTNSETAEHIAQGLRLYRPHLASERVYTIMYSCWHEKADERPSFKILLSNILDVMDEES
For data set [4], the system named is Hepatocyte. Kind of data set: Intrinsic clearance in human hepatocytes at 1 uM by LC-MS/MS analysis. Format: ADME, cell-based.
The target in data set [5] is Tyrosine-protein kinase BTK (Homo sapiens, UniProt Q06187). Briefly: Inhibition of BTK (unknown origin) by Lanthascreen assay. (In TR-FRET formats the signal depends on donor and acceptor labels being close together.)
Tyrosine-protein kinase BTK (Homo sapiens, UniProt Q06187), sequence (Q06187 whole entry): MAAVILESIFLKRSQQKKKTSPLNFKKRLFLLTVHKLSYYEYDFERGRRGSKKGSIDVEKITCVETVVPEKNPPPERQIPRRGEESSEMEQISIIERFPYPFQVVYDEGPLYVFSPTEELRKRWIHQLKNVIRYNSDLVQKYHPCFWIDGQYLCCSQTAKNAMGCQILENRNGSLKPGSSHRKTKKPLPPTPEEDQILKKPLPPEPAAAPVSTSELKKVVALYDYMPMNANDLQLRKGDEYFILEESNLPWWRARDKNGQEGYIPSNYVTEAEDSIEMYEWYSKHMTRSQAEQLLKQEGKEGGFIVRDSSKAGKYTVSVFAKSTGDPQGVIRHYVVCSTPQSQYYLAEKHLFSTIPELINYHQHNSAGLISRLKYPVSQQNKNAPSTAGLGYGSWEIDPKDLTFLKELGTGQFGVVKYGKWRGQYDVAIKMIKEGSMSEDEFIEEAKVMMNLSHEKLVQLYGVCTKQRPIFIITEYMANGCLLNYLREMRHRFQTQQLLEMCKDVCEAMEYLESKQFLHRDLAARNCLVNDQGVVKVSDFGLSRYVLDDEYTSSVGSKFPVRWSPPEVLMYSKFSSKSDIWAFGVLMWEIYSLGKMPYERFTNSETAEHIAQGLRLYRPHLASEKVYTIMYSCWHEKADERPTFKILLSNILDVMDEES

The values that follow come from ChEMBL document CHEMBL3745631, “Discovery of highly potent and selective Bruton's tyrosine kinase inhibitors: Pyridazinone analogs with improved metabolic stability” (Bioorg Med Chem Lett, 2016).

Structures are written as SMILES.

For orientation: IC50 means the concentration needed to halve the response being measured.

In data set [1], `CN1CCN(C)C(c2ccc(Nc3nc(-c4cccc(NC(=O)c5cc6c(s5)CCCC6)c4)cn(C)c3=O)cc2)C1=O` (racemic) came in with a CLH of over 15 mL/min/kg.
As for `Cc1ccc(-c2cc(Nc3cc4n(n3)CCN(C)C4)c(=O)[nH]n2)c(C)c1NC(=O)c1cc2ccccc2s1`, the CLH in data set [1] is under 6 mL/min/kg; in data set [2], over 15 mL/min/kg. In addition, the IC50 in data set [3] worked out at 387 nM.
Consider `Cc1c(-c2cn(C)c(=O)c(Nc3ccc(C4C(=O)N(C)CCN4C)cc3)n2)ccc(F)c1NC(=O)c1cc2c(s1)CCCC2` (stereo in doubt; 14), for which, in data set [1], the CLH is under 6 mL/min/kg.
`CN1CCN(C)C(c2ccc(Nc3nc(-c4ccc(Cl)c(NC(=O)c5cc6c(s5)CCCC6)c4Cl)cn(C)c3=O)cc2)C1=O` (racemic) gave a CLH in data set [1] of 6 mL/min/kg.
In the case of `CN1CCN(C)C(c2ccc(Nc3nc(-c4ccc(F)c(NC(=O)c5cc6c(s5)CCCC6)c4)cn(C)c3=O)cc2)C1=O` (stereo in doubt; 8), the CLH in data set [1] was found to be 6 mL/min/kg.
Still for that read-out and setting: the value for `CN1CCN(C)C(c2ccc(Nc3nc(-c4ccc(F)c(NC(=O)c5cc6c(s5)CCCC6)c4)cn(C)c3=O)cc2)C1=O` (stereo in doubt; 7) was under 6 mL/min/kg.
Still for that read-out and setting: the value for `Cc1ccc(-c2cn(C)c(=O)c(Nc3ccc(C4C(=O)N(C)CCN4C)cc3)n2)c(C)c1NC(=O)c1cc2c(s1)CCCC2` (racemic) was under 6 mL/min/kg; that for `CN1CCN(C)C(c2ccc(Nc3nc(-c4cccc(NC(=O)c5cc6c(s5)CCCC6)c4F)cn(C)c3=O)cc2)C1=O` (racemic) was over 15 mL/min/kg.
As to `Cc1c(-c2cc(Nc3cc4n(n3)CCN(C)C4)c(=O)[nH]n2)ccc(F)c1NC(=O)c1cnc(C(C)(C)C)cn1`, the CLH in data set [1], in data set [2] and in data set [4] was 6 mL/min/kg in each case. For the same compound, the concentration for half-maximal inhibition (IC50) in data set [5] was 4 nM; in data set [3], 90 nM.
Consider `Cc1ccc(-c2cc(Nc3cc4n(n3)CCN(C)C4)c(=O)[nH]n2)c(F)c1NC(=O)c1cc2ccccc2s1`, for which the CLH in data set [1] and in data set [2] was 6 mL/min/kg throughout. Besides, the values for the IC50 in data set [5] and in data set [3] were 11 nM and 200 nM, respectively.
For `CN1CCN(C)C(c2ccc(Nc3nc(-c4ccc(C#N)c(NC(=O)c5cc6c(s5)CCCC6)c4)cn(C)c3=O)cc2)C1=O` (racemic), the CLH in data set [1] is under 6 mL/min/kg.
The same measure, in the same setting: the value for `Cc1c(NC(=O)c2cc3c(s2)CCCC3)cccc1-c1cn(C)c(=O)c(Nc2ccc([C@@H]3C(=O)N(C)CCN3C)cc2)n1` was over 15 mL/min/kg.
On the same count and under the same terms, under `CN1CCN(C)C(c2ccc(Nc3nc(-c4ccc(Cl)c(NC(=O)c5cc6c(s5)CCCC6)c4)cn(C)c3=O)cc2)C1=O` (racemic) stands 6 mL/min/kg; under `Cc1c(-c2cn(C)c(=O)c(Nc3ccc(C4C(=O)N(C)CCN4C)cc3)n2)ccc(F)c1NC(=O)c1cc2c(s1)CCCC2` (stereo in doubt; 13), 6 mL/min/kg.
Still for that read-out and setting: under `Cc1c(-c2cn(C)c(=O)c(Nc3ccc(C4C(=O)N(C)CCN4C)cc3)n2)ccc(Cl)c1NC(=O)c1cc2c(s1)CCCC2` (racemic) stands 6 mL/min/kg; under `Cc1ccc(-c2cn(C)c(=O)c(Nc3ccc(C4C(=O)N(C)CCN4C)cc3)n2)c(Cl)c1NC(=O)c1cc2c(s1)CCCC2` (configuration not stated), under 6 mL/min/kg.
`CN1CCn2nc(Nc3cc(-c4ccc(F)c(NC(=O)c5cc6ccccc6s5)c4F)n[nH]c3=O)cc2C1`: the CLH in data set [2] was over 15 mL/min/kg; in data set [4], 6 mL/min/kg. Also, in data set [3], the IC50 worked out at 18 nM.
Take `CN1CCN(C)C(c2ccc(Nc3nc(-c4ccc(F)c(NC(=O)c5cc6c(s5)CCCC6)c4F)cn(C)c3=O)cc2)C1=O` (configuration not stated): in data set [1], the CLH was found to be 6 mL/min/kg.
With `Cc1c(NC(=O)c2cc3ccccc3s2)cccc1-c1cc(Nc2cc3n(n2)CCN(C)C3)c(=O)[nH]n1`, the CLH in data set [1] and in data set [2] was over 15 mL/min/kg each time. In addition, in data set [3], the concentration for half-maximal inhibition (IC50) came out at 41 nM.
Take `CN1CCN(C)C(c2ccc(Nc3nc(-c4cccc(NC(=O)c5cc6c(s5)CCCC6)c4Cl)cn(C)c3=O)cc2)C1=O` (racemic): the CLH in data set [1] was over 15 mL/min/kg.
Compound `CN1CCN(C)C(c2ccc(Nc3nc(-c4ccc(Cl)c(NC(=O)c5cc6c(s5)CCCC6)c4F)cn(C)c3=O)cc2)C1=O` (configuration not stated) came in with a CLH in data set [1] of under 6 mL/min/kg.
With `CN1CCn2nc(Nc3cc(-c4ccc(F)c(NC(=O)c5cc6ccccc6s5)c4)n[nH]c3=O)cc2C1`, the values for the CLH in data set [1], in data set [2] and in data set [4] were under 6 mL/min/kg, over 15 mL/min/kg and over 15 mL/min/kg, respectively. Also, the IC50 in data set [3] was found to be 50 nM.
In the case of `Cc1c(-c2cc(Nc3cc4n(n3)CCN(C)C4)c(=O)[nH]n2)ccc(F)c1NC(=O)c1cc2ncccc2s1`, the CLH in data set [1], in data set [2] and in data set [4] was 6 mL/min/kg each time. Besides, the IC50 in data set [3] came out at 680 nM.
As for `Cc1c(-c2cc(Nc3cc4n(n3)CCN(C)C4)c(=O)[nH]n2)ccc(F)c1NC(=O)c1ccc(C(C)(C)C)cc1`, the CLH is 6 mL/min/kg in data set [1], over 15 mL/min/kg in data set [2] and 6 mL/min/kg in data set [4]. The figures for the 50% inhibitory concentration (IC50) in data set [5] and in data set [3] were 4 nM and 54 nM, respectively.
Regarding `Cc1ccc(-c2cn(C)c(=O)c(Nc3ccc([C@H]4C(=O)N(C)CCN4C)cc3)n2)c(F)c1NC(=O)c1cc2c(s1)CCCC2`, in data set [1], the CLH was under 6 mL/min/kg.
In data set [1], `Cc1ccc(-c2cn(C)c(=O)c(Nc3ccc([C@@H]4C(=O)N(C)CCN4C)cc3)n2)c(F)c1NC(=O)c1cc2c(s1)CCCC2` displayed a CLH of under 6 mL/min/kg.
On to `Cc1c(-c2cc(Nc3cc4n(n3)CCN(C)C4)c(=O)[nH]n2)ccc(F)c1NC(=O)c1cc2cccnc2s1`, for which the CLH in data set [1] and in data set [2] was 6 mL/min/kg in each case. The IC50 in data set [3] was 740 nM.
